Data reported in ChEMBL document CHEMBL1156829 (Proc Natl Acad Sci U S A, 2008).

What was measured:
Plasmodium falciparum [1] = test: NOVARTIS: Inhibition of Plasmodium falciparum 3D7 (drug-susceptible) proliferation in erythrocyte-based infection assay; format: functional, organism-based; conditions: Plasmodium falciparum, 3D7
Plasmodium falciparum [2] = test: NOVARTIS: Inhibition of Plasmodium falciparum W2 (drug-resistant) proliferation in erythrocyte-based infection assay; format: functional, organism-based; conditions: Plasmodium falciparum, W2; read-out: EC50
[3] = NOVARTIS: Cytotoxicity against human hepatocellular carcinoma cell line (Huh7); format: toxicity, cell-based, Huh-7; conditions: Huh7 cells (hepatocellular carcinoma cell line)

SMILES	EC50 (Plasmodium falciparum [1])	EC50 (Plasmodium falciparum [2])	CC50 [3]
CCN1CCCC1CNc1[nH]cnc2c3cc(F)ccc3nc1-2 (stereo unspecified)	808 nM	1260 nM	22400 nM
CC(C)(C)NC(=O)C(c1ccc(F)cc1)N(CCCN1CCOCC1)C(=O)c1ccc(-c2ccccc2)[nH]1 (stereo unspecified)	1010 nM	562 nM	> 10000 nM
C=C[C@H]1CN2CC[C@H]1C[C@H]2[C@H](OC(C)=O)c1ccnc2ccccc12	1460 nM	590 nM	> 10000 nM
OC(CN1CCN(CC(O)Cn2c3ccccc3c3cc(Br)ccc32)CC1)Cn1c2ccccc2c2ccccc21 (stereo unspecified)	> 1260 nM	576 nM	> 10000 nM
C/C=C/c1n(C)c2ccccc2[n+]1C	501 nM	589 nM	> 10000 nM
Cc1ccc(C2(C)CC(C)(C)N(C(=O)Cc3ccccc3)c3ccc(C(c4ccccc4)(c4ccccc4)c4ccccc4)cc32)cc1 (stereo unspecified)	4790 nM	5680 nM	> 100000 nM
COc1ccc(/C=C\c2nc(=O)c3ccccc3o2)cc1	697 nM	587 nM	> 10000 nM
CCCCc1ccc(C(=O)N(CCc2ccccc2)C(CC)c2nc3ccccc3c(=O)n2-c2ccccc2OC)cc1 (stereo unspecified)	311 nM	354 nM	> 6270 nM
CCCCCc1ccc(C(=O)N(CCCC(C)Nc2cc(OC)cc3cccnc23)Cc2ccc(OC)c(OC)c2)cc1 (stereo unspecified)	514 nM	284 nM	5030 nM
Oc1ccc(Nc2nc(NCc3ccco3)c3ccccc3n2)cc1	86.1 nM	1110 nM	19700 nM
CCN1/C(=C/C=C/c2oc3ccc4ccccc4c3[n+]2CC)Oc2ccc3ccccc3c21	> 1250 nM	578 nM	> 10000 nM
CN(C)CCNC(=O)COc1ccc(-c2nc3ccccc3s2)cc1CN(C)C	622 nM	557 nM	> 10000 nM
CC(C)N1CC[C@@H](N2CCN(c3cccc(C(F)(F)F)c3)CC2)[C@@H](CCC(=O)N(C)C2CCN(C)CC2)C1	> 1040 nM	285 nM	5130 nM
COc1cc(C(=O)N2CCN(Cc3cccc(Br)c3)CC2)cc(OC)c1OC	> 12500 nM	5580 nM	> 100000 nM
CC1=C(C(=O)Nc2ccccn2)C(c2ccc(O)cc2)n2ncnc2N1 (stereo unspecified)	> 1250 nM	561 nM	> 10000 nM
Cc1sc2nc(C3CC3)n(C3CCN(C(=O)C4CC=CCC4)CC3)c(=O)c2c1C (stereo unspecified)	> 1250 nM	> 560 nM	> 10000 nM
COc1cc(/C=C(\C#N)c2nc3ccccc3[nH]2)ccc1OCc1ccc(Cl)cc1	321 nM	558 nM	> 10000 nM
C=C[C@H]1CN2CC[C@H]1C[C@H]2[C@H](OC(=O)c1ccc(Cl)cc1)c1ccnc2ccccc12	412 nM	564 nM	> 10000 nM
CCOC(=O)C1=NNC2C(=O)N(c3cccc(C)c3C)C(=O)C12 (stereo unspecified)	> 1250 nM	563 nM	> 10000 nM
CCCC(=O)N1CCN(C(=O)c2nc(-c3ccccc3)nc(C(C)C)c2C(=O)OC)CC1C (stereo unspecified)	880 nM	475 nM	> 8440 nM
COc1ccc(N(CC(=O)NCCc2ccc(F)cc2)S(=O)(=O)c2ccccc2)cc1	> 12500 nM	5620 nM	> 100000 nM
CCOc1ccc2c(c1)sc(=NC(=O)Nc1ccc(OC)cc1)n2C	> 8300 nM	997 nM	17800 nM
c1ccc2c(NC3CCCC3)nc(Nc3ccc4c(c3)OCO4)nc2c1	525 nM	753 nM	12800 nM

SMILES	EC50 (Plasmodium falciparum [1])	EC50 (Plasmodium falciparum [2])	CC50 [3]
CCN1CCC(N2C[C@H](n3cc(C(=O)OC)nn3)C[C@H]2C(=O)NCc2cccc(C(F)(F)F)c2)CC1	> 1250 nM	> 563 nM	> 10000 nM
C[n+]1c(-c2ccccc2)cc(-c2ccccc2)cc1-c1ccccc1	> 1020 nM	> 590 nM	> 10000 nM
CCCCCN(C(=O)c1cccc([N+](=O)[O-])c1)C(CC)c1nc2ccccc2c(=O)n1-c1ccccc1OC (stereo unspecified)	> 1250 nM	591 nM	> 10000 nM
CCC(=O)N1CCc2cc(Br)cc(S(=O)(=O)N3CCCCC3CC)c21 (stereo unspecified)	9980 nM	5700 nM	> 100000 nM
CCC1=NN2C(=N)/C(=C/c3cn(CCOc4cccc(C)c4)c4ccccc34)C(=O)N=C2S1	> 1250 nM	> 572 nM	> 10000 nM
Cc1cc2c(cc1S(=O)(=O)N(C)C1CCCCC1)OCC(=O)N2	> 1250 nM	> 569 nM	> 10000 nM
OCCN(CCO)CC(O)Cn1c2ccc(Br)cc2c2cc(Br)ccc21 (stereo unspecified)	2330 nM	1550 nM	27300 nM
Cc1ccc(O)c(NC(=O)c2cnn3c(C(F)(F)F)cc(-c4ccc(F)cc4)nc23)c1	10500 nM	5720 nM	> 100000 nM
C=CC1CN2CCC1CC2[C@H](O)c1ccnc2ccc(O)cc12 (stereo partly specified)	404 nM	5720 nM	> 100000 nM
Nc1nc(NCC2CCC(CNS(=O)(=O)c3cccc4ccccc34)CC2)nc2ccccc12 (stereo unspecified)	684 nM	571 nM	> 10000 nM
CCCCn1c(=N)c(C(=O)NC(C)c2ccccc2)cc2c(=O)n3cccc(C)c3nc21 (stereo unspecified)	1380 nM	> 5680 nM	> 100000 nM
O=C(Cn1c2ccccc2c(=O)c2cc([N+](=O)[O-])ccc21)Nc1ccc(F)c(Cl)c1	> 12500 nM	5670 nM	> 100000 nM
c1ccc(OCCOc2ccc(Nc3c4ccccc4nc4ccccc34)cc2)cc1	505 nM	347 nM	6120 nM
CCCN(Cc1cc(OC)c2c(c1)OCO2)CC1CC1	> 1720 nM	566 nM	> 10000 nM
O=C(NCCCCNc1ccnc2cc(Cl)ccc12)c1ccc([N+](=O)[O-])cc1	486 nM	565 nM	> 10000 nM
CCc1ccc(NC(=O)c2ccc(F)c(S(=O)(=O)N3CCN(C)CC3)c2)cc1	> 1250 nM	> 584 nM	> 10000 nM
Cc1cc(NS(=O)(=O)c2ccc(N=Cc3ccc(C#N)cc3)cc2)no1	> 1640 nM	> 582 nM	> 10000 nM
COc1ccc(C(=O)C(C)[n+]2cccc3ccc4cccnc4c32)cc1 (stereo unspecified)	195 nM	> 577 nM	> 10000 nM
NC(=S)NN=C1c2ccccc2-c2nc3nonc3nc21	1130 nM	582 nM	> 10000 nM
C=C(C)[C@@]12O[C@@H]1[C@@]1(C)C(=CC2=O)CC[C@@H](O)[C@@H]1C	787 nM	586 nM	> 10000 nM
CCCC1(CCC)NC(=S)N(c2ccc(C)c(C)c2)N1	> 1250 nM	> 576 nM	> 10000 nM
COc1ccc(-n2nc(C(C)(C)C)cc2NC(=O)CN(C(=O)c2ccc(C)c([N+](=O)[O-])c2)C(C)C)cc1	1550 nM	1820 nM	31100 nM
O=C(NCCc1nc(-c2cccnc2)n[nH]1)C12CC3CC(CC(C3)C1)C2	> 1250 nM	581 nM	> 10000 nM

SMILES	EC50 (Plasmodium falciparum [1])	EC50 (Plasmodium falciparum [2])	CC50 [3]
CCCCCCC(NC(=O)OCc1ccccc1)S(=O)(=O)c1ccc(C)cc1 (stereo unspecified)	> 12500 nM	5800 nM	> 100000 nM
NS(=O)(=O)c1ccc(CCNC(=O)/C=C/c2ccc3c(c2)OCO3)cc1	> 1400 nM	> 583 nM	> 10000 nM
CCN(CC)c1ccc(C=C(C#N)c2nc3ccccc3[nH]2)o1	3350 nM	> 2670 nM	46200 nM
COc1ccc(N(CC(=O)Nc2cc(OC)ccc2OC)S(=O)(=O)c2ccc(C)cc2)cc1	> 1250 nM	> 583 nM	> 10000 nM
COc1ccc(OCC(O)CNC2CCN(CC(O)COc3ccc(Cl)c(Cl)c3)CC2)cc1 (stereo unspecified)	328 nM	524 nM	9140 nM
c1ccc(-c2cc(NCCCN3CCOCC3)nc(-c3ccccn3)n2)nc1	> 1010 nM	586 nM	> 10000 nM
c1ccc(-c2ccccc2OCCNCCN2CCOCC2)cc1	10100 nM	2700 nM	46800 nM
O=C(Cn1c2ccccc2c(=O)c2ccc(Cl)cc21)Nc1cccc(Cl)c1	934 nM	589 nM	> 10000 nM
CCC(=O)NCc1nnc(SCc2cccc(C(F)(F)F)c2)n1-c1cccc(OC)c1	> 12500 nM	5610 nM	> 100000 nM
O=C(NC1CCCCC1)c1noc2c1CCCCC2	> 12500 nM	5670 nM	> 100000 nM
O=C(/C=C/c1ccc(-c2cccc([N+](=O)[O-])c2)o1)Nc1nccs1	> 1250 nM	> 570 nM	> 10000 nM
C=CC[n+]1ccc(/C=C/c2ccccc2)c(C)c1	656 nM	558 nM	> 10000 nM
Nc1cc(-c2cccs2)n[nH]1	> 11200 nM	> 5810 nM	> 100000 nM
CN(CCCNc1ccnc2cc(Cl)ccc12)S(=O)(=O)c1ccc(Cl)c([N+](=O)[O-])c1	243 nM	185 nM	3140 nM
CCOc1cc(S(=O)(=O)N2CCCC3(CCCCC3)C2)c(OCC)cc1-n1cnnn1	> 1250 nM	> 563 nM	> 10000 nM
Cc1cc(/C=C2/SC(=Nc3ccccc3)NC2=O)c(C)n1-c1cccc([N+](=O)[O-])c1	395 nM	556 nM	> 10000 nM
CCN(CC)CCCNC(=S)N(Cc1ccccc1)Cc1cc2cc(C)c(Cl)cc2[nH]c1=O	1940 nM	1160 nM	20900 nM
Cc1cc(C)cc(-n2c(C)cc(/C=C3/SC(=Nc4ccc(Br)cc4)NC3=O)c2C)c1	325 nM	588 nM	> 10000 nM
CCCN(C(=O)Nc1c(C(C)C)cccc1C(C)C)C(CC)c1nc2ccccc2c(=O)n1-c1cccc(C)c1 (stereo unspecified)	3170 nM	4580 nM	80900 nM
CCCCCN(C(=O)c1ccc2ccccc2c1)C(CC)c1nc2ccccc2c(=O)n1-c1ccc(Cl)cc1C (stereo unspecified)	961 nM	587 nM	> 10000 nM
CCN1CCN(CCN2C(=O)C3C(C(=O)Nc4ccc(C(C)C)cc4)C4C=CC3(O4)C2C(=O)NC2CCCCC2)CC1 (stereo unspecified)	> 12500 nM	5820 nM	> 100000 nM
